Measurements: paper PMC5874699, “Antimicrobial and Antibiofilm Activity of UP-5, an Ultrashort Antimicrobial Peptide Designed Using Only Arginine and Biphenylalanine” (Pharmaceuticals, 2018)
Square brackets hold non-standard residues; d marks the D form. Peptide text beside a SMILES is read from it. Bip = N[C@@H](Cc1ccc(-c2ccccc2)cc1)C(=O)O

Experiments:
[1] = test system: P. aeruginosa (ATCC BAA-2114); experiment: Broth microdilution checkerboard, UP-5 with antibiotics; assay type: cell-based, Pseudomonas aeruginosa; conditions: P. auroginosa ATCC BAA-2114, checkerboard, triplicate
Description: (§1) All bacterial susceptibility, biofilm, and synergistic assays of peptides, antibiotics, and peptides-antibiotics combinations used bacterial strains obtained from the American Type Tissue Culture Collection (ATCC, Manassas, VA, USA) that states the mechanism of resistance for each strain according to ATCC number. Gram-positive bacteria were represented by five strains, the wild type strain Staphylococcus aureus (ATCC 29213) and methicillin-resistant S. aureus (MRSA) (ATCC 33591) in addition to clinically isolated strains S. aureus (ATCC BAA-41& 43300) and Enterococcus faecalis (ATCC BAA-2316). The Gram-negative bacteria strains were represented by wild type strains of Escherichia coli (ATCC 25922 & 35218) and Pseudomonas aeruginosa (ATCC 27853) as well as the clinically isolated multidrug-resistant strain P. aeruginosa (ATCC BAA-2114). The bacteria were cultured onto Muller Hinton Agar (Scharlab, S.L, Barcelona, Spain). Mueller Hinton Broth (Oxoid Ltd., Basingstoke, UK) was used to prepare all bacterial suspensions and to dissolve the peptides and the antibiotics. The assay was performed in sterile 96-well polypropylene microtiter plates.
According to the broth microdilution checkerboard technique, the MIC and MBC values of peptide-antibiotics combinations against wild type and multidrug resistant bacterial strains were determined. Serial concentrations of peptide and each antibiotic were prepared in the range of 0.005–100 μM. In each well of a 96-well microtiter plate, 25 μL of each peptide concentration were added to 25 μL of each antibiotic concentration which is followed by adding 50 μL of diluted bacterial suspension (10^6 CFU/mL) to each well. The prepared concentrations of peptide and each antibiotic were arranged into rows and columns, respectively, in a 96-well microtiter plate according the checkerboard technique. Then as described previously (see Section 2.4.1), the procedure was followed. All MIC and MBC determinations of all assays were made in triplicate.
The fractional inhibitory concentration (FIC) is defined as the inhibitory concentration of the antimicrobial combination divided by that of the single antimicrobial component. To calculate FIC index for peptide-antibiotic combinations, the following equation was used:(1) FIC index=MIC of drug X in combination/MIC of drug X alone+MIC of drug Y in combination/MIC of drug Y alone
The FIC indices were interpreted as follows: ≤0.5: synergistic activity, 0.5–1: additive activity, 1–4 indifferent, >4: antagonism. Interpretation and assessment of the FIC indices were performed according to the broth microdilution checkerboard technique.

S. aureus (ATCC BAA-41) = assay type: cell-based, Staphylococcus aureus; conditions: ATCC BAA-41, 24 h
Description: as §1
(§2) All bacterial susceptibility assays were conducted according to the microbroth dilution method outlined by the Clinical and Laboratory Standards Institute (CLSI) guidelines.
(§3) Briefly, pre-sterilized MHB was used as a growth medium for organisms obtained from stock media with glycerol. Bacterial cells were grown overnight in MHB and diluted to 10^6 CFU/mL in the same medium prior to use. For peptide, serial concentrations in the range of 0.5–100 μM were prepared. Then, 50 μL of each peptide concentration and 50 µL of diluted bacterial suspension were added to each well of a 96-well microtiter plate. Peptide solutions were prepared by dissolving the peptide in sterile MHB. Then, the plates were incubated overnight in a humidified atmosphere, and at 37 °C. Bacterial growth was determined by measuring the optical density (OD) at λ = 600 nm using an ELISA plate reader (Epoch, BioTek, Winooski, VT, USA) and the minimum inhibitory concentration (MIC) was determined.
(§4) As described in the previous section, the MIC and MBC values of antibiotics employed in this study were determined against subjected bacterial strains via preparing different concentrations of each antibiotic.

S. aureus (ATCC 43300) = assay type: cell-based, Staphylococcus aureus; conditions: ATCC 43300, 24 h
Description: as §1, §2, §3, §4

[2] = test system: Escherichia coli (ATCC 25922); assay type: cell-based; conditions: ATCC 25922, 24 h
Description: as §1, §2, §3

[3] = test system: Pseudomonas aeruginosa (ATCC 27853); assay type: cell-based; conditions: ATCC 27853, 24 h
Description: as §1, §2, §3

[4] = test system: Escherichia coli (ATCC 35218); assay type: cell-based; conditions: ATCC 35218, 24 h
Description: as §1, §2, §3

[5] = test system: Enterococcus faecalis (ATCC BAA-2316); assay type: cell-based; conditions: ATCC BAA-2316, 24 h
Description: as §1, §2, §3

## N=C(N)NCCC[C@H](NC(=O)[C@H](Cc1ccc(-c2ccccc2)cc1)NC(=O)[C@H](CCCNC(=N)N)NC(=O)[C@H](Cc1ccc(-c2ccccc2)cc1)NC(=O)[C@@H](N)CCCNC(=N)N)C(=O)O [UP-5] (H-R[Bip]R[Bip]R-OH)
[1]; UP-5 in combination with Ampicillin
  UP-5 MIC in Combination: 20 µM
[1]; UP-5 in combination with Chloramphenicol
  UP-5 MIC in Combination: 10 µM
[1]; UP-5 in combination with Erythromycin
  UP-5 MIC in Combination: 27.5 µM
[1]; UP-5 in combination with Levofloxacin
  UP-5 MIC in Combination: 20 µM
[1]; UP-5 in combination with Rifampicin
  UP-5 MIC in Combination: 25 µM
S. aureus (ATCC BAA-41)
  MBC Value: 15 µM
  MIC Value: 15 µM
S. aureus (ATCC 43300)
  MBC Value: 15 µM
  MIC Value: 15 µM
[2]
  MBC Value: 55 µM
  MIC Value: 55 µM
[3]
  MBC Value: 65 µM
  MIC Value: 65 µM
[4]
  MBC Value: 60 µM
  MIC Value: 60 µM
[5]
  MBC Value: 70 µM
  MIC Value: 70 µM
